Test results reported in paper PMC10960705 (Cell chemical biology, 2023).
One block for each compound: values may come before it.

Key:
Assay type in all cases: cell-based
[1] = biological target: peptidyl-prolyl cis/trans isomerase PIN1 (Homo sapiens, UniProt Q13526); assay: TMT-ABPP dose-response competition with DBIA probe in lysate
VLDLR = VLDLR (Homo sapiens, UniProt P98155); assay: TMT-ABPP competition with DBIA probe in lysate
KRAS^G12C = KRAS^G12C (Homo sapiens, UniProt P01116, G12C); assay: TMT-ABPP competition with DBIA probe in HCC44 lysate, […], […] hr

Chain of peptidyl-prolyl cis/trans isomerase PIN1 (Q13526 whole entry): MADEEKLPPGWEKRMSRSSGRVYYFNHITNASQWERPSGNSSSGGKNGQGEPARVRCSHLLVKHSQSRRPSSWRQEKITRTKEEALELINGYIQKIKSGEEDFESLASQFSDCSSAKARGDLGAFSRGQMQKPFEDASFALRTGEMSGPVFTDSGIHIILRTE

Structure (SMILES): CC(C)(C)CN(C(=O)CCl)C1CCS(=O)(=O)C1 (stereo not drawn) [Sulfopin]
TMT-ABPP dose-response competition with DBIA probe in lysate [1]: Sulfopin is the most potent among the four whereas CL41 is the least

Structure (SMILES): C=CC(=O)N1CCCC(n2ccnn2)CC1 (stereo not drawn) [AC19, 1-(4-(1H-1,2,3-triazol-1-yl)azepan-1-yl)prop-2-en-1-one]
TMT-ABPP competition with DBIA probe in lysate (VLDLR): reside in their respective EGF-like domains and were all exclusively and significantly engaged by AC19

TMT-ABPP competition with DBIA probe in HCC44 lysate, 50 μM, 1 hr (KRAS^G12C): 2.7 competition ratio (CR) at 50 μM
Structure (SMILES): C=CC(=O)N1CCN(c2ncnc3c(F)c(-c4c(O)cccc4F)c(Cl)cc23)CC1 [ARS-1620]
